# Test results as given in ChEMBL document CHEMBL1122453, “Structure-activity relationships in the antiinflammatory steroids: a pattern-recognition approach” (1983).
# Organism: Rattus norvegicus
# Experiment: Anti-inflammatory effect in rat granuloma assay, activity relative to hydrocortisone and hydrocortisone 21-acetate
# Type: functional
row,SMILES,Potency
1,C[C@@H]1CC2C3CCC4=CC(=O)C=CC4(C)C3[C@@H](O)CC2(C)C1C(=O)CO (some centres undefined),3
2,CC(=O)OCC(=O)[C@@]12OC(C)(C)O[C@@H]1CC1C3C[C@H](F)C4=CC(=O)CCC4(C)C3C(O)CC12C (some centres undefined),4
3,CC(=O)OCC(=O)[C@@]1(O)CCC2C3CCC4=CC(=O)CCC4(C)[C@@]3(F)C(=O)CC21C (some centres undefined),10
4,CC12CCC(=O)C=C1[C@@H](Cl)CC1C3CC(O)[C@](O)(C(=O)CO)C3(C)CC(O)[C@@]12F (some centres undefined),50
5,CC(=O)OCC(=O)[C@@]1(O)CCC2C3C[C@H](F)C4=CC(=O)CCC4(C)C3C(O)CC21C (some centres undefined),10
6,CC(=O)OCC(=O)[C@@]1(O)CCC2C3CCC4=CC(=O)[C@H](C)CC4(C)[C@@]3(F)C(O)CC21C (some centres undefined),9
7,CC(=O)OCC(=O)C1CCC2C3CCC4=CC(=O)CCC4(C)C3C(O)=CC12C (centres undefined),0.2
8,CC(=O)OCC(=O)[C@@]1(O)CCC2C3C[C@H](Cl)C4=CC(=O)CCC4(C)C3C(O)CC21C (some centres undefined),11
9,CC12C=CC(=O)C=C1[C@@H](Cl)CC1C3CC(O)[C@](O)(C(=O)CO)C3(C)CC(O)[C@@]12F (some centres undefined),400
10,CC(=O)OCC(=O)[C@@]1(O)CCC2C3C[C@H](Cl)C4=CC(=O)CCC4(C)[C@@]3(F)C(=O)CC21C (some centres undefined),8
11,C[C@H]1CC2C3CCC4=CC(=O)CCC4(C)C3C(O)CC2(C)[C@@]1(O)C(=O)CO (some centres undefined),4
12,C[C@@H]1C[C@H]2[C@@H]3CCC4=CC(=O)C=C[C@]4(C)[C@H]3[C@@H](O)C[C@]2(C)[C@@]1(O)C(=O)CO,11.3
13,C[C@@H]1CC2C3CCC4=CC(=O)C=CC4(C)[C@@]3(F)C(O)=CC2(C)[C@@]1(O)C(=O)CO (some centres undefined),140
14,CC(=O)OCC(=O)[C@@]1(O)CC[C@H]2[C@@H]3CCC4=CC(=O)CC[C@]4(C)[C@H]3C(=O)C[C@@]21C [CORTISONE ACETATE],0.3
15,CC(=O)OCC(=O)[C@@]1(O)[C@H](C)CC2C3C[C@H](F)C4=CC(=O)C=CC4(C)[C@@]3(F)C(O)CC21C (some centres undefined),120
16,C[C@@H]1CC2C3C[C@H](C)C4=CC(=O)C=CC4(C)[C@@]3(F)C(O)CC2(C)[C@@]1(O)C(=O)CO (some centres undefined),200
17,C[C@@H]1CC2C3CCC4=CC(=O)C=CC4(C)C3C(=O)CC2(C)[C@@]1(O)C(=O)CO (some centres undefined),13
18,CC(=O)OCC(=O)[C@@]12OC(C)(C)O[C@@H]1CC1C3C[C@H](F)C4=CC(=O)C=CC4(C)C3C(O)CC12C (some centres undefined),20
19,CC(=O)OCC(=O)C1CCC2C3CCC4=CC(=O)CCC4(C)C3C(O)CC12C (centres undefined),0.3
20,CC(=O)OCC(=O)[C@@]1(O)[C@H](C)CC2C3C[C@H](F)C4=CC(=O)CCC4(C)[C@@]3(F)C(O)CC21C (some centres undefined),50
21,CC(=O)OCC(=O)[C@@]1(O)CCC2C3CCC4=CC(=O)C=CC4(C)[C@@]3(Cl)[C@@H](Cl)CC21C (some centres undefined),0.5
22,C[C@H]1C[C@@H]2[C@H]([C@@H](O)C[C@@]3(C)[C@H]2CC[C@]3(O)C(=O)CO)[C@@]2(C)C=CC(=O)C=C12 (stereo in doubt; 68) [METHYLPREDNISOLONE],200
23,C[C@H]1CC2C3CCC4=CC(=O)CCC4(C)[C@@]3(F)C(O)CC2(C)[C@@]1(O)C(=O)CO (some centres undefined),23
24,C[C@H]1CC2C3CCC4=CC(=O)CCC4(C)C3C(=O)CC2(C)[C@@]1(O)C(=O)CO (some centres undefined),2
25,CC(=O)OCC(=O)[C@@]1(O)CCC2C3C[C@H](F)C4=CC(=O)C=CC4(C)[C@@]3(F)C(O)CC21C (some centres undefined),200

row,SMILES,Potency
1,CC(=O)OCC(=O)[C@@]1(O)[C@H](C)CC2C3C[C@H](F)C4=CC(=O)CCC4(C)C3C(O)CC21C (some centres undefined),5
2,CC(=O)OCC(=O)[C@@]1(O)CCC2C3C[C@H](F)C4=CC(=O)CCC4(C)[C@@]3(F)C(O)CC21C (some centres undefined),50
3,CC(=O)OCC(=O)[C@@]1(O)CCC2C3C[C@H](F)C4=CC(=O)CCC4(C)C3C(=O)CC21C (some centres undefined),10
4,C[C@]12CCC(=O)C=C1CC[C@@H]1[C@@H]2C(=O)C[C@@]2(C)[C@H]1CC[C@]2(O)C(=O)CO [CORTISONE],0.4
5,CC1(C)O[C@@H]2CC3C4C[C@H](F)C5=CC(=O)CCC5(C)[C@@]4(F)C(O)CC3(C)[C@]2(C(=O)CO)O1 (some centres undefined),103
6,CC12C=CC(=O)C=C1[C@@H](Cl)CC1C2C(O)CC2(C)C1CC[C@]2(O)C(=O)CO (some centres undefined),14
7,CC(=O)OCC(=O)[C@@]1(O)CC[C@H]2[C@@H]3CCC4=CC(=O)C=C[C@]4(C)[C@H]3C(=O)C[C@@]21C,1
8,C[C@@H]1CC2C3CCC4=CC(=O)CCC4(C)C3C(O)CC2(C)[C@@]1(O)C(=O)CO (some centres undefined),1.4
9,CC12C=CC(=O)C=C1CCC1C3CC[C@](O)(C(=O)CO)C3(C)CC(O)[C@@]12F (some centres undefined),17.7
10,CC(=O)OCC(=O)C1CCC2C3CCC4=CC(=O)[C@H](C)CC4(C)[C@@]3(F)C(O)CC12C (some centres undefined),2.4
11,CC(=O)OCC(=O)C1CCC2C3CCC4=CC(=O)CCC4(C)[C@@]3(F)C(O)CC12C (some centres undefined),2.7
12,C[C@@H]1CC2C3CCC4=CC(=O)C=CC4(C)[C@@]3(Cl)C(O)CC2(C)[C@@]1(O)C(=O)CO (some centres undefined),60
13,C[C@H]1C[C@H]2[C@@H]3CCC4=CC(=O)C=C[C@]4(C)[C@H]3[C@@H](O)C[C@]2(C)[C@@]1(O)C(=O)CO,23
14,CC12CCC(=O)C=C1[C@@H](F)CC1C3C[C@@H](O)[C@](O)(C(=O)CO)C3(C)CC(O)[C@@]12F (some centres undefined),15
15,CC(=O)OCC(=O)[C@@]1(O)CCC2C3C[C@H](F)C4=CC(=O)C=CC4(C)C3C(O)CC21C (some centres undefined),20
16,CC(=O)OCC(=O)[C@@]1(O)CCC2C3C[C@H](Cl)C4=CC(=O)C=CC4(C)C3C(=O)CC21C (some centres undefined),4
17,CC(=O)OCC(=O)[C@@]1(O)CCC2C3C[C@H](Cl)C4=CC(=O)C=CC4(C)[C@@]3(F)C(O)CC21C (some centres undefined),27
18,CC(=O)OCC(=O)[C@@]1(O)CCC2C3CCC4=CC(=O)C=CC4(C)[C@@]3(F)C(O)CC21C (some centres undefined),14
19,C[C@H]1CC2C3CCC4=CC(=O)C=CC4(C)C3C(=O)CC2(C)[C@@]1(O)C(=O)CO (some centres undefined),26
20,CC(=O)OCC(=O)C1CCC2C3CCC4=CC(=O)[C@H](C)CC4(C)C3C(O)=CC12C (some centres undefined),<0.01
21,CC12CCC(=O)C=C1[C@@H](F)CC1C2C(O)CC2(C)C1C[C@@H](O)[C@]2(O)C(=O)CO (some centres undefined),5
22,CC(=O)OCC(=O)[C@@]1(O)CCC2C3C[C@H](F)C4=CC(=O)C=CC4(C)C3C(=O)CC21C (some centres undefined),20
23,C[C@@H]1CC2(C)C(=CC1=O)CCC1C2C(=O)CC2(C)C1CC[C@]2(O)C(=O)CO (some centres undefined),<0.07
24,CC(=O)OCC(=O)[C@@]1(O)CCC2C3C[C@H](Cl)C4=CC(=O)CCC4(C)C3C(=O)CC21C (some centres undefined),1
25,CC(=O)OCC(=O)C1CCC2C3CCC4=CC(=O)[C@H](C)CC4(C)C3C(O)CC12C (some centres undefined),0.3

# Organism: Homo sapiens
# Experiment: Potency relative to fluocinolone 16,17-acetonide in the human vasoconstictor test
# Type: functional
row,SMILES,Potency
1,CCCCC(=O)O[C@]1(C(=O)CO)[C@@H](C)C[C@H]2[C@@H]3CCC4=CC(=O)C=C[C@]4(C)[C@@]3(F)[C@@H](O)C[C@@]21C [BETAMETHASONE VALERATE],360
2,CC(=O)O[C@]1(C(=O)O)[C@@H](C)CC2C3CCC4=CC(=O)C=CC4(C)C3(F)[C@@H](O)CC21C (some centres undefined),<1
3,CCCC(=O)O[C@]1(C(=O)COC(=O)CC)CCC2C3C[C@H](F)C4=CC(=O)C=CC4(C)[C@@]3(F)C(O)CC21C (some centres undefined),1058
4,CC(=O)OCC(=O)[C@@]1(OC(=O)C(C)C)CCC2C3C[C@H](F)C4=CC(=O)C=CC4(C)[C@@]3(F)C(O)CC21C (some centres undefined),720
